Reference: ChEMBL document CHEMBL1151254, “A new anti-HIV alkaloid, drymaritin, and a new C-glycoside flavonoid, diandraflavone, from Drymaria diandra” (J Nat Prod, 2004)
Values after ≈ are worked out from the molar mass of the structure shown.

How the values were obtained:
[1] = tested on: Human immunodeficiency virus; assay: Antiviral activity against HIV in human H9 cells; assay type: functional, organism-based; conditions: Human immunodeficiency virus 1, H9
Neutrophil = assay: Inhibition of fMLP/CB-stimulated superoxide anion generation in human neutrophils; assay type: functional, cell-based

EC50 [1] [µg/mL]	IC50 (Neutrophil) [µg/mL]	SMILES
20.6 (≈ 82.3 µM)		COc1cnc2ccc(=O)n3c4ccccc4c1c23
	10 (≈ 17.8 µM)	COc1cc2oc(-c3ccc([C@@H]4O[C@H](CO)[C@@H](O)[C@H](O)[C@H]4O)cc3)cc(=O)c2c(O)c1[C@H]1C[C@@H](O)[C@@H](O)[C@@H](C)O1 [DIANDRAFLAVONE A]
0.699 (≈ 2.79 µM)		COc1cn2c3ccccc3c3ccnc(c1=O)c32 [DRYMARITIN]
